Each compound was assayed on MDA-MB-231 cells (assay: Cell proliferation assay (CellTiter-Glo), MDA-MB-231). Details: 72 h treatment, Celltiter-Glo luminescence.
Type: cell-based
Protocol: Example 238: Cell Proliferation Assay
MDA-MB-231 and EVSA-T cells (10000 cells/well) were plated onto 96-well plates (Corning, Cat #3917) in 95 μL of medium (RPMI-1640 containing 10% FBS and MEM containing 10% FBS, respectively). Compounds with various concentrations ([…]) were added to the wells. After treatment for 72 h, 30 μL of Celltiter-Glo reagent (Promega, Cat #G7573) was added and incubated at room temperature for 15 min, then the luminescent signal was determined using a microplate reader (Biotek, SynergyH1). The inhibitor dose-response curves were analyzed using normalized IC50 regression curve fitting with control based normalization.

Row | IC50 [nM] | SMILES
1 | 80 | C[C@@H]1CN(CC(=O)N2CC(C)(C)c3c2cc(Cc2ccc(F)cc2)c2nc(N4C[C@@H](O)[C@H](O)C4)nn32)[C@@H](CN2CCOC[C@H]2C)CN1 [Compound 188, 1-(2-((3R,4R)-3,4-dihydroxypyrrolidin-1-yl)-4-(4-fluorobenzyl)-8,8-dimethyl-7,8-dihydro-6H-pyrrolo[2,3-e][1,2,4]triazolo[1,5-a]pyridin-6-yl)-2-((2R,5R)-5-methyl-2-(((R)-3-methylmorpholino)methyl)piperazin-1-yl)ethan-1-one]

Same assay, conditions: Homo sapiens, MDA-MB-231, 72 h, 72 h treatment, Celltiter-Glo luminescence

Row | IC50 [nM] | SMILES
2 | 190 | C[C@@H]1CN(CC(=O)N2CC(C)(C)c3c2cc(S(=O)(=O)c2ccc(F)cc2)c2ncnn32)[C@@H](CN2CCOC[C@H]2C)CN1 [Compound 176, 1-(4-((4-fluorophenyl)sulfonyl)-8,8-dimethyl-7,8-dihydro-6H-pyrrolo[2,3-e][1,2,4]triazolo[1,5-a]pyridin-6-yl)-2-((2R,5R)-5-methyl-2-(((R)-3-methylmorpholino)methyl)piperazin-1-yl)ethan-1-one]
3 | 490 | C[C@@H]1CN(CC(=O)N2CC(C)(C)c3c2cc(Cc2ccc(F)cc2)c2nc(C(F)(F)F)cn32)[C@@H](CN2CCN(S(C)(=O)=O)C[C@H]2C)CN1 [Compound 178, 1-(4-(4-fluorobenzyl)-8,8-dimethyl-2-(trifluoromethyl)-7,8-dihydro-6H-imidazo[1,2-a]pyrrolo[2,3-e]pyridin-6-yl)-2-((2R,5R)-5-methyl-2-(((R)-2-methyl-4-(methylsulfonyl)piperazin-1-yl)methyl)piperazin-1-yl)ethan-1-one]
4 | 810 | C[C@@H]1CN(CC(=O)N2CC3(CCOCC3)c3c2cc(Cc2ccc(F)cc2)c2nc(C(F)(F)F)cn32)[C@@H](CN2CCOC[C@H]2C)CN1 [Compound 183, 1-(4-(4-fluorobenzyl)-2-(trifluoromethyl)-2′,3′,5′,6′-tetrahydrospiro[imidazo[1,2-a]pyrrolo[2,3-e]pyridine-8,4′-pyran]-6(7H)-yl)-2-((2R,5R)-5-methyl-2-(((R)-3-methylmorpholino)methyl)piperazin-1-yl)ethan-1-one]
5 | 230 | Cc1nccn1C[C@H]1CN[C@H](C)CN1CC(=O)N1CC(C)(C)c2c1cc(Cc1ccc(F)cc1)c1nc(C(F)(F)F)cn21 [Compound 186, 1-(4-(4-fluorobenzyl)-8,8-dimethyl-2-(trifluoromethyl)-7,8-dihydro-6H-imidazo[1,2-a]pyrrolo[2,3-e]pyridin-6-yl)-2-((2R,5R)-5-methyl-2-((2-methyl-1H-imidazol-1-yl)methyl)piperazin-1-yl)ethan-1-one]
6 | 80 | C[C@@H]1CN(CC(=O)N2CC(C)(C)c3c2cc(Cc2ccc(F)cc2)c2ncnn32)[C@@H](CN2CCNC(=O)[C@H]2C)CN1 [Compound 191, (R)-4-(((2R,5R)-1-(2-(4-(4-fluorobenzyl)-8,8-dimethyl-7,8-dihydro-6H-pyrrolo[2,3-e][1,2,4]triazolo[1,5-a]pyridin-6-yl)-2-oxoethyl)-5-methylpiperazin-2-yl)methyl)-3-methylpiperazin-2-one]
7 | 680 | C[C@@H]1CN(CC(=O)N2CC(C)(C)c3c2cc(N2CCN(C)c4cc(F)ccc42)c2ncnn32)[C@@H](CN2CCOC[C@H]2C)CN1 [Compound 194, 1-(4-(6-fluoro-4-methyl-3,4-dihydroquinoxalin-1(2H)-yl)-8,8-dimethyl-7,8-dihydro-6H-pyrrolo[2,3-e][1,2,4]triazolo[1,5-a]pyridin-6-yl)-2-((2R,5R)-5-methyl-2-(((R)-3-methylmorpholino)methyl)piperazin-1-yl)ethan-1-one]
8 | 180 | C[C@@H]1CN(CC(=O)N2CC(C)(C)c3c2cc(Cc2ccc(F)cc2)c2nc(N4CCNC(=O)C4)nn32)[C@@H](CN2CCOC[C@H]2C)CN1 [Compound 195, 4-(4-(4-fluorobenzyl)-8,8-dimethyl-6-(2-((2R,5R)-5-methyl-2-(((R)-3-methylmorpholino)methyl)piperazin-1-yl)acetyl)-7,8-dihydro-6H-pyrrolo[2,3-e][1,2,4]triazolo[1,5-a]pyridin-2-yl)piperazin-2-one]
9 | > 10000 | C[C@@H]1CN(CC(=O)N2CC(C)(C)c3c2cc(Cc2ccc(F)cc2)c2nc(C(=O)O)nn32)[C@@H](CN2CCOC[C@H]2C)CN1 [Compound 197, 4-(4-fluorobenzyl)-8,8-dimethyl-6-(2-((2R,5R)-5-methyl-2-(((R)-3-methylmorpholino)methyl)piperazin-1-yl)acetyl)-7,8-dihydro-6H-pyrrolo[2,3-e][1,2,4]triazolo[1,5-a]pyridine-2-carboxylic acid]
10 | 1000 | C[C@@H]1CN(CC(=O)N2CC(C)(C)c3c2cc(N2CCNc4cc(F)ccc42)c2ncnn32)[C@@H](CN2CCOC[C@H]2C)CN1 [Compound 198, 1-(4-(6-fluoro-3,4-dihydroquinoxalin-1(2H)-yl)-8,8-dimethyl-7,8-dihydro-6H-pyrrolo[2,3-e][1,2,4]triazolo[1,5-a]pyridin-6-yl)-2-((2R,5R)-5-methyl-2-(((R)-3-methylmorpholino)methyl)piperazin-1-yl)ethan-1-one]
11 | 70 | C[C@@H]1CN(CC(=O)N2CC(C)(C)c3c2cc(Cc2ccc(F)cc2)c2nc(S(C)(=O)=O)nn32)[C@@H](CN2CCOC[C@H]2C)CN1 [Compound 200, 1-(4-(4-fluorobenzyl)-8,8-dimethyl-2-(methylsulfonyl)-7,8-dihydro-6H-pyrrolo[2,3-e][1,2,4]triazolo[1,5-a]pyridin-6-yl)-2-((2R,5R)-5-methyl-2-(((R)-3-methylmorpholino)methyl)piperazin-1-yl)ethan-1-one]
12 | 7080 | C[C@@H]1CN(CC(=O)N2CC(C)(C)c3c2cc(Cc2ccc(F)cc2)c2ncnn32)[C@@H](CN2CCN(C)C(=O)[C@H]2C)CN1 [Compound 205, (R)-4-(((2R,5R)-1-(2-(4-(4-fluorobenzyl)-8,8-dimethyl-7,8-dihydro-6H-pyrrolo[2,3-e][1,2,4]triazolo[1,5-a]pyridin-6-yl)-2-oxoethyl)-5-methylpiperazin-2-yl)methyl)-1,3-dimethylpiperazin-2-one]
13 | 210 | C[C@@H]1CN(CC(=O)N2CC(C)(C)c3c2cc(Cc2ccc(F)cc2)c2nc(N4CCOCC4=O)nn32)[C@@H](CN2CCOC[C@H]2C)CN1 [Compound 208, 4-(4-(4-fluorobenzyl)-8,8-dimethyl-6-(2-((2R,5R)-5-methyl-2-(((R)-3-methylmorpholino)methyl)piperazin-1-yl)acetyl)-7,8-dihydro-6H-pyrrolo[2,3-e][1,2,4]triazolo[1,5-a]pyridin-2-yl)morpholin-3-one]
14 | 2160 | C[C@@H]1CN(CC(=O)N2CC(C)(C)c3c2cc(Cc2ccc(F)cc2)c2nc(P(C)(C)=O)nn32)[C@@H](CN2CCOC[C@H]2C)CN1 [Compound 209, 1-(2-(dimethylphosphoryl)-4-(4-fluorobenzyl)-8,8-dimethyl-7,8-dihydro-6H-pyrrolo[2,3-e][1,2,4]triazolo[1,5-a]pyridin-6-yl)-2-((2R,5R)-5-methyl-2-(((R)-3-methylmorpholino)methyl)piperazin-1-yl)ethan-1-one]
15 | 150 | C[C@@H]1CN(CC(=O)N2CC(C)(C)c3c2cc(Sc2ccc(F)cn2)c2ncnn32)[C@@H](CN2CCOC[C@H]2C)CN1 [Compound 211, 1-(4-((5-fluoropyridin-2-yl)thio)-8,8-dimethyl-7,8-dihydro-6H-pyrrolo[2,3-e][1,2,4]triazolo[1,5-a]pyridin-6-yl)-2-((2R,5R)-5-methyl-2-(((R)-3-methylmorpholino)methyl)piperazin-1-yl)ethan-1-one]
16 | 430 | C[C@@H]1CN(CC(=O)N2CC(C)(C)c3c2cc(Cc2ccc(F)cc2)c2ncnn32)[C@@H](CN2CCN(C(N)=O)C[C@H]2C)CN1 [Compound 215, (R)-4-(((2R,5R)-1-(2-(4-(4-fluorobenzyl)-8,8-dimethyl-7,8-dihydro-6H-pyrrolo[2,3-e][1,2,4]triazolo[1,5-a]pyridin-6-yl)-2-oxoethyl)-5-methylpiperazin-2-yl)methyl)-3-methylpiperazine-1-carboxamide]
17 | 280 | C[C@@H]1CN(CC(=O)N2CC(C)(C)c3c2cc(Sc2ccc(F)cc2N)c2ncnn32)[C@@H](CN2CCOC[C@H]2C)CN1 [Compound 216, 1-(4-((2-amino-4-fluorophenyl)thio)-8,8-dimethyl-7,8-dihydro-6H-pyrrolo[2,3-e][1,2,4]triazolo[1,5-a]pyridin-6-yl)-2-((2R,5R)-5-methyl-2-(((R)-3-methylmorpholino)methyl)piperazin-1-yl)ethan-1-one]
18 | 350 | C[C@@H]1CN(CC(=O)N2CC(C)(C)c3c2cc(Cc2ccc(F)cc2)c2nn(CC(N)=O)c(=O)n32)[C@@H](CN2CCOC[C@H]2C)CN1 [Compound 217, 2-(4-(4-fluorobenzyl)-8,8-dimethyl-6-(2-((2R,5R)-5-methyl-2-(((R)-3-methylmorpholino)methyl)piperazin-1-yl)acetyl)-1-oxo-7,8-dihydro-1H-pyrrolo[2,3-e][1,2,4]triazolo[4,3-a]pyridin-2(6H)-yl)acetamide]
19 | 190 | C[C@@H]1CN(CC(=O)N2CC(C)(C)c3c2cc(Cc2ccc(F)cc2)c2nn(Cc4ncccn4)c(=O)n32)[C@@H](CN2CCOC[C@H]2C)CN1 [Compound 221, 4-(4-fluorobenzyl)-8,8-dimethyl-6-(2-((2R,5R)-5-methyl-2-(((R)-3-methylmorpholino)methyl)piperazin-1-yl)acetyl)-2-(pyrimidin-2-ylmethyl)-2,6,7,8-tetrahydro-1H-pyrrolo[2,3-e][1,2,4]triazolo[4,3-a]pyridin-1-one]

Reference: patent US20250179073A1, “TRICYCLIC HETEROCYCLE COMPOUNDS AS IAP ANTAGONISTS” (Ascentage Pharma (Suzhou) Co., Ltd., priority 2022, published 2025)
